Data reported in US20240425891A1, “Host cells and methods for improved polyketide production using methylmalonyl-CoA-dependent polyketide synthase (PKS)” (THE REGENTS OF THE UNIVERSITY OF CALIFORNIA, priority 2023, published 2024).

Experiments:
[1] = tested on: C. glutamicum Cz034; experiment: Propionate tolerance of Cz034 in CGXII minimal medium (growth curve); type: cell-based, Corynebacterium glutamicum
Protocol: Propionate tolerance was first evaluated using Cz034 in CGXII minimal medium to evaluate the highest propionate concentration for ALE. The lag phase increased as the propionate concentration increased, and no growth was observed when the propionate concentration was over 8,000 mg/L (Extended Data FIG. S11a, b). Then, ALE was applied to improve propionate tolerance and germicidin production in Cz12 by repeatedly growing the strains in increasing concentrations of propionate until we reached 8,000 mg/L (Extended Data FIG. S12). After two months of evolution, 563 single colonies were picked up from plates. Most of them grew faster than the initial strain (Extended Data FIG. S13a, b, c, d). […] To clarify whether the increased germicidin production improved methylmalonyl-CoA utilization, germicidin titer was measured on evolved strains.
Colony PCR. Pick up colonies from plate and cultivate in BHI medium (30° C., 200 rpm) overnight (around 14-16 h). Prepare digestion solution (120 μL zymolase (E1005, ZYMO RESEARCH) and 2500 μL PBS pH=7.2) for 96 reactions. Take 3-5 μL overnight culture into 20 μL digestion solution, 30° C. for 1 h. Add 3-5 μL dimethyl sulfoxide (DMSO), then 98° C. for 10 min. Take 2 μL for 50 μL PCR reaction. Growth curve measurement. Various cells were pre-cultivated in BHI liquid medium (30° C., 200 rpm) overnight. […] Growth curve was measured by SpectraMaX M2e at 30° C.

[2] = target: T1, hexokinase (HK2) (Homo sapiens, UniProt P52789); conditions: literature reference 36; cited from earlier work
T1 sequence (P52789 1-917): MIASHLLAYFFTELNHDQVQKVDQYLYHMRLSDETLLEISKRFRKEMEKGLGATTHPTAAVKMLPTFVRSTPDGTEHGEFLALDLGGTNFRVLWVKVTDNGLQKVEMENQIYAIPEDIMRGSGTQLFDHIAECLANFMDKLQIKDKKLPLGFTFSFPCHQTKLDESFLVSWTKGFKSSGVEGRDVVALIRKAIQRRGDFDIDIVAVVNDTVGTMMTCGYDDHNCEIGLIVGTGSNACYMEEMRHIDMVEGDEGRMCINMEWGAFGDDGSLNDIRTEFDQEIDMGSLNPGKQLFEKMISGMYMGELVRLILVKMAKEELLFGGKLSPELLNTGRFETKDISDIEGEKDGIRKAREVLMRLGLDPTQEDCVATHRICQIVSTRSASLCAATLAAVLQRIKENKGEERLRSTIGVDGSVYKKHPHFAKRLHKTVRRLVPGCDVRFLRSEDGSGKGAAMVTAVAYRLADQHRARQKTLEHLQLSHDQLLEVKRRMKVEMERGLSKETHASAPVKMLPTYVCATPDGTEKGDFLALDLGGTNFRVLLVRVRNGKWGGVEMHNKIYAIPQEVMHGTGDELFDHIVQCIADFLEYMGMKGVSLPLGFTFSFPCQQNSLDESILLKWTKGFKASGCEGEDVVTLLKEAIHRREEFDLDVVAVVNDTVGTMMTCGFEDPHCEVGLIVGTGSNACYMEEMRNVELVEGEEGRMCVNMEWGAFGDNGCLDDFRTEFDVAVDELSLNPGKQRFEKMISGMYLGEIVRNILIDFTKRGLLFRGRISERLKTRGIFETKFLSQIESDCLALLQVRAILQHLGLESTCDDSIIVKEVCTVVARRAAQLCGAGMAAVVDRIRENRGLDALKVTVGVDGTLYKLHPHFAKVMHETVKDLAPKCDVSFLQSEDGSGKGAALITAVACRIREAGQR

Compound | propionate concentration above which no growth was observed [1] | IC50 on hexokinase (HK2) [2] [µg/mL]
CCC(=O)O [propionate] | over 8,000 mg/L | 
germicidin |  | 780
